Data from PMC6522524 (Nature Communications, 2019).
Values joined by “and” are separate entries in the source; they are usually repeats but may differ in a detail not shown here. Identical values can stand only once. Counter-ions that a name gives are not always drawn. Like-named read-outs stand apart in the source and are kept apart here.

How the values were obtained:
[1] = ref https://www.drugbank.ca/; cited from earlier work
[2] = system: HBV pgRNA/precore RNA in HepG2.2.15 cells; format: cell-based, Hepatitis B virus
Method: Fig. 1 Effect of FDA-approved compounds on HBV replication. a Schematic depiction of the primary screening analysis. HepG2.2.15 cells, which were stably transfected with HBV replicons, were treated with 978 FDA-approved drugs (1 μM) for 3 days. Entecavir (ETV) (1 μM) served as positive control. […] Quantitative RT-PCR was performed after 6 days of incubation. d Effect of the 19 candidates on intracellular HBV capsid assembly. Huh-7 cells were transfected with pCDNA3-Core and exposed after 12 h to the 19 candidates (1 μM) for 36 h. The cells were lysed and assembled HBV core particles were isolated by sucrose step gradient ultracentrifugation, resolved on 1% agarose gels, and subjected to immunoblot analysis with anti-HBV core antibody.
Quantitative RT-PCR with primers that detect three HBV regions (R1, R2, and R3, Supplementary Table 1) was used to measure HBV transcription. This RT-PCR detects pgRNA and precore RNA (3.5 kB), two HBV surface-encoding RNAs (2.5 kB and 2.1 kB), and HBx-encoding RNA (0.7 kB)[55]. PCR conditions were 95 °C for 10 min initially, then 50 cycles of 95 °C for 30 s, 60 °C for 60 s and 72 °C for 30 s, and finally 1 cycle of 95 °C for 60 s, 55 °C for 30 s and 95 °C for 30 s.
a Schematic depiction of the R1, R2, and R3 regions of the HBV genome that were targeted by
quantitative RT-PCR to quantitate the transcription of pgRNA, two HBV surface RNAs, and HBx RNA.
pGL3/HBV pgRNA promoter or pGL3/HBV sRNA promoter. The data shown in (b – d) represent two

[3] = system: HBV (ayw subtype, genotype D) replicon in HepG2.2.15 cells; test: microbe, parasite or virus in culture; format: cell-based, Hepatitis B virus; conditions: for inhibition at 1 µM: Hepatitis B virus
[4] = HepG2.2.15, 72 h, 1 μM, 3 days, ETV =100%, read-out: % of inhibition (ETV =100%), initial screening (3days)
[5] = HepG2.2.15, 144 h, 6 days, ETV =100%, read-out: % of inhibition (ETV =100%), confirmation (6days)
[6] = HepG2.2.15, 72 h, read-out: % of inhibition (ETV =100%), initial screening (3days)
[7] = HepG2.2.15, 144 h, read-out: % of inhibition (ETV =100%), confirmation (6days)

Row | Compound | pKa value (acidic) [1] | pKa value (basic) [1] | Relative HBV pgRNA/precore RNA level (Folds), AVERAGE ([2]; Fig. 1c, 6 days) [Folds] | inhibition at 1 µM [3, 4] [%] | inhibition at 1 µM [3, 5] [%] | Relative HBV pgRNA/precore RNA level (Folds), AVERAGE [2] [Folds] | further results
1 | O=c1[nH]c(=O)n(C2CCCO2)cc1F (stereo not shown) [Ftorafur] | 8.08 | -4.3 | 0.977 | 131 | 64.7 |  | 
2 | OC(CNCC(O)C1CCc2cc(F)ccc2O1)C1CCc2cc(F)ccc2O1 (stereo not shown) [Nebivolol] | 13.52 | 8.9 | 0.9531 | 103 | 78.4 |  | 
3 | COc1cc(C)c(/C=C/C(C)=C/C=C/C(C)=C/C(=O)O)c(C)c1C [Acitretin] | 5.01 | -4.8 | 0.9923 | 110 | 1.8 |  | 
4 | Clc1ccc(COC(Cn2ccnc2)c2ccc(Cl)cc2Cl)c(Cl)c1 (stereo not shown) [Miconazole] |  | 6.77 |  |  |  | 0.964 | inhibition at 1 µM [3, 6]: 132%; inhibition at 1 µM [3, 7]: -2.8%
5 | Clc1ccc(COC(Cn2ccnc2)c2ccc(Cl)cc2Cl)cc1 (stereo not shown) [Econazole nitrate] |  | 6.77 |  |  |  | 0.0453 | inhibition at 1 µM [3, 6]: 147%; inhibition at 1 µM [3, 7]: 27.5%
6 | O=N[O-].[Na+] [Sodium nitrite] |  |  |  |  |  | 0.04652 | Relative HBV pgRNA/precore RNA level (Folds), individual samples [2]: 0.04803 Folds and 0.041 Folds and 0.05054 Folds; % of inhibition (ETV =100%), confirmation (6days) [3]: 83.1%; Relative secreted HBV DNA level (Folds), AVERAGE [3]: 0.2643 Folds; Relative secreted HBV DNA level (Folds), individual samples [3]: 0.2643 Folds and 0.2628 Folds and 0.2659 Folds; % of inhibition (ETV =100%), initial screening (3days) ([3]; 1 µM): 152.7%
7 | L-Adrenaline |  |  | 0.9192 |  |  |  | Relative HBV pgRNA/precore RNA level (Folds), individual samples ([2]; Fig. 1c, 6 days, Sample1-3): 1.032 Folds and 0.7969 Folds and 0.9286 Folds; % of inhibition (ETV =100%), initial screening (3days) ([3]; 1 μM, 3 days, ETV =100%): 152.6%; % of inhibition (ETV =100%), confirmation (6days) ([3]; 6 days, ETV =100%): 1.5%; Relative secreted HBV DNA level (Folds), AVERAGE ([3]; Fig. 1b, 6 days): 0.9865 Folds; Relative secreted HBV DNA level (Folds), individual samples ([3]; Fig. 1b, 6 days, Sample1-3): 0.9865 Folds and 0.985 Folds and 0.9881 Folds
8 | CC(C)(C)c1ccc(C(O)CCCN2CCC(C(O)(c3ccccc3)c3ccccc3)CC2)cc1 (stereo not shown) [Terfenadine] | 13.2 | 9.02 |  |  |  | 0.05435 | inhibition at 1 µM [3, 6]: 101%; inhibition at 1 µM [3, 7]: 83.6%
9 | CCOCC(O)COc1ccc(NC(=O)CC[S+](C)C)cc1 (stereo not shown) [Suplatast tosylate] | 12.7 |  | 1.034 | 125 | 76.2 |  | 
10 | Cc1c(N(C)C)c(=O)n(-c2ccccc2)n1C [Amidopyrine] |  | 3.47 | 1.046 |  |  |  | Relative HBV pgRNA/precore RNA level (Folds), individual samples ([2]; Fig. 1c, 6 days, Sample1-3): 1.129 Folds and 0.9386 Folds and 1.071 Folds; % of inhibition (ETV =100%), initial screening (3days) ([3]; 1 μM, 3 days, ETV =100%): 111.6%; % of inhibition (ETV =100%), confirmation (6days) ([3]; 6 days, ETV =100%): 7.1%; Relative secreted HBV DNA level (Folds), AVERAGE ([3]; Fig. 1b, 6 days): 0.9368 Folds; Relative secreted HBV DNA level (Folds), individual samples ([3]; Fig. 1b, 6 days, Sample1-3): 0.9368 Folds and 0.9352 Folds and 0.9383 Folds
11 | Clc1ccc(C(Cn2ccnc2)OCc2c(Cl)cccc2Cl)c(Cl)c1 (stereo not shown) [Isoconazole nitrate] |  | 6.77 | 1.034 | 148 | 41.4 |  | 
12 | CC(C)NCC(O)c1ccc(NS(C)(=O)=O)cc1 (stereo not shown) [Sotalol] | 10.07 | 9.43 | 1.022 | 128 | 69.7 |  | 
13 | CN1C(C(=O)Nc2ccccn2)=C(O)c2sccc2S1(=O)=O [Tenoxicam] | 2.21 | 4.26 |  |  |  | 0.04619 | inhibition at 1 µM [3, 6]: 110%; inhibition at 1 µM [3, 7]: 79.4%
14 | C[N+]1(C)[C@@H]2C[C@@H](OC(=O)C(O)(c3cccs3)c3cccs3)C[C@H]1[C@@H]1O[C@@H]12 [Tiotropium Bromide hydrate] | 10.35 | -4.3 | 1.071 | 117 | 4.9 |  | 
15 | OC(CCN1CCCC1)(c1ccccc1)C1CCCCC1 (stereo not shown) [Procyclidine HCl] |  | 9.45 | 1.056 | 112 | 70.4 |  | 
16 | CCCN(CCc1cccs1)[C@H]1CCc2c(O)cccc2C1 [Rotigotine] | 10.03 | 10.97 | 1.049 | 104 | 65.9 |  | 
17 | O=C1NC(=O)C(c2ccccc2)(c2ccccc2)N1 [Phenytoin sodium] | 9.47 |  | 0.7935 | 124 | -2.4 |  | 
18 | NCCc1ccc(O)c(O)c1 [Dopamine hydrochloride] | 10.01 | 9.27 |  |  |  | 1.103 | inhibition at 1 µM [3, 6]: 162%; inhibition at 1 µM [3, 7]: 67.9%
